Measured values from the NIST ThermoML archive (doi:10.1016/j.jct.2016.09.026).

How the values were obtained:
[1] = Molar enthalpy of transition or fusion; settings: Crystal; DSC
[2] = molar enthalpy of vaporization or sublimation; settings: 351.22 K; Crystal; Static calorimetry
[3] = Crystal
[4] = molar heat capacity at constant pressure; settings: 101.33 kPa, Crystal, Small sample (50 mg) DSC

CCCC(=O)c1ccc(O)cc1 [1-(4-hydroxyphenyl)-1-butanone]
Settings | Molar enthalpy of transition or fusion [kcal/mol] | molar enthalpy [kcal/mol]
[1] | 5.73 | –
[2] | – | 27.3

Settings | mass density [kg/m3]
[3], 298 K, 101.33 kPa, X-ray diffraction | 1204.5

Settings | Normal melting temperature [°C] | molar heat capacity at constant pressure [J/K/mol]
[3], DTA | 91.6 | –
[4], 288.67 K | – | 219.2
[4], 289.99 K | – | 221.2
[4], 291.29 K | – | 221.3
[4], 291.6 K | – | 222
[4], 292.87 K | – | 223.3
[4], 294.14 K | – | 224.2
[4], 295.4 K | – | 225.7
[4], 296.66 K | – | 227.4
[4], 297.92 K | – | 228.6
[4], 299.17 K | – | 229.2
[4], 300.43 K | – | 231
[4], 301.68 K | – | 232.3
[4], 302.94 K | – | 232.9
[4], 304.19 K | – | 234.6
[4], 305.45 K | – | 234.9
[4], 306.7 K | – | 236.9
[4], 307.95 K | – | 238.6
[4], 309.21 K | – | 239.7
[4], 310.46 K | – | 240.7
[4], 311.71 K | – | 242
[4], 312.96 K | – | 243.7
[4], 314.21 K | – | 244.9
[4], 315.46 K | – | 245.8
[4], 316.71 K | – | 247
[4], 317.96 K | – | 247.7
[4], 319.22 K | – | 249.1
[4], 320.47 K | – | 250.2
[4], 321.72 K | – | 251.4
[4], 322.97 K | – | 253
[4], 324.23 K | – | 254.5
[4], 325.48 K | – | 256.4
[4], 326.73 K | – | 257.1
[4], 327.98 K | – | 258.9
[4], 329.23 K | – | 260.2
[4], 330.48 K | – | 262.1
[4], 331.73 K | – | 263.6
[4], 332.98 K | – | 265.5
[4], 334.23 K | – | 265.9
[4], 335.48 K | – | 267.6
[4], 336.73 K | – | 270.1
[4], 337.98 K | – | 270.4
[4], 339.23 K | – | 272
[4], 340.48 K | – | 274.4
[4], 341.73 K | – | 276
[4], 342.98 K | – | 278.2
[4], 344.23 K | – | 279.7
[4], 345.48 K | – | 281.2
[4], 346.73 K | – | 282.8
[4], 347.98 K | – | 284.5
[4], 349.23 K | – | 287
[4], 350.48 K | – | 289
